Converted amounts (≈) assume the structure as drawn.
Columns and labels:
Format in all cases: functional
[1] = system: Trichophyton mentagrophytes; test: Antimicrobial activity against Trichophyton mentagrophytes ATCC 9972
[2] = system: Saccharomyces cerevisiae; test: Antimicrobial activity against Saccharomyces cerevisiae ATCC 9763
[3] = system: Staphylococcus aureus; test: Antimicrobial activity against Staphylococcus aureus ATCC 6538
[4] = system: Mycolicibacterium smegmatis; test: Antimicrobial activity against Mycobacterium smegmatis ATCC 607

- MIC [1]: 1.56 µg/mL (≈ 5.86 µM)
- MIC [2]: 25 µg/mL (≈ 93.9 µM)
- MIC [3]: 3.12 µg/mL (≈ 11.7 µM)
- MIC [4]: 1.56 µg/mL (≈ 5.86 µM)
SMILES: C=CCc1ccc(Oc2cc(CC=C)ccc2O)cc1 [ISOMAGNOLOL]

— ChEMBL document CHEMBL1145660, “Antimicrobial Neolignans of Sassafras randaiense Roots” (1983)
